Key:
[1] = molecular target: T1, KRAS-G12C mutant (Homo sapiens, UniProt P01116, G12C); experiment: TR-FRET assay of SOS1-assisted KRAS GDP/GTP exchange; type: biochemical
Procedure: GDP form of 6*His tagged KRAS-G12C was diluted to 40 nM and incubated with 8 nM LanthaScreen™ Elite Terbium-anti-HIS Antibody (Thermo, catalog number PV5863) in reaction buffer containing 20 mM Tris, pH 7.5, 100 mM NaCl, 1 mM DTT, 0.1% Tween20, 0.05% BSA, 2% DMSO, 1 mM MgCl2. After 1 hour-incubation at 4° C., proteins were placed in 384 well plate (PerkinElmer, PROXIPLATE-384 PLUS). Then compounds with different concentrations were added to the proteins. BODIPY labeled GTP (Thermo, catalog number G12411) and SOS-1 (or reaction buffer as control) were then added to reactions at 200 nM and 1 μM to trigger the exchange of GDP to BODIPY-GTP. TR-FRET emission signals were determined at 520 nm and 620 nm on a Envision® Multilabel Plate Reader (PerkinElmer) using a 337 nm laser as light source. All data were analyzed and plotted using Graph Pad Prism software (version 8.0.1). Raw TR-FRET data were converted to percentage of inhibition (relative to DMSO) using the following equations: […]
b) For a given test compound concentration X:
Signal (X)=Emission ratio (SOS-1 & GTP)—Emission ratio (buffer & GTP)
c) Percentage of inhibition at concentration X=[1−Signal(X)/Signal (DMSO)]*100%
The […] values were determined by nonlinear regression of plots of [inhibitor] vs. percentage of inhibition with variable slope. Table 4 summarizes inhibition of SOS1-assisted GDP/GTP exchanging activity of KRAS-G12C mutant with exemplary compounds of the present disclosure.

[2] = test system: phospho-ERK1/2 (Thr202/Tyr204) in MIA PaCa-2 cell line; experiment: pERK and ERK Western blot analysis, MIA PaCa-2; type: cell-based; conditions: Homo sapiens; MIA PaCa-2 cell line, 4 hours after incubation; read-out: 2D pERK IC50
Procedure: MIA PaCa-2 (ATCC), NCI-H358 (ATCC), NCI-H23 (ATCC), SW837 and A549 (ATCC) cells were plated in 24-well plates at 2×10^5cells/well in RPMI growth medium containing 10% FBS and 1× Penicillin Streptomycin. They were then incubated at 37° C. overnight. The following day, the test compound was administered to the cells by using 1000× compound stock solution prepared in DMSO at various concentrations. After administration of the compound, the cells were then incubated at 37° C. for 4 hours. Upon completion, the cells were washed with PBS and protein was collected in Laemmli sample buffer (1×; VWR International). Proteins in cell lysate were separated by SDS-PAGE and transferred to Odyssey nitrocellulose membranes (Licor) with iblot® dry blotting transfer system (ThermoFisher). Nonspecific binding was blocked by incubating membranes with Intercept Blocking Buffer (Licor) for 1 hour at room temperature with gentle shaking. The membranes were then incubated overnight at 4° C. with primary antibodies rabbit anti-phospho p44/42 MAPK (Erk1/2) (1:2,000, Cell Signaling, 4370) and mouse anti-p44/42 MAPK (Erk1/2) (1:1,000, Cell Signaling, 4696) diluted in Intercept Blocking Buffer containing 0.1% Tween 20. After washing 3 times with TBS-T, the membranes were incubated with IRDye® 800CW goat anti-rabbit IgG (1:20,000, Licor) or IRDye® 680CW goat anti-mouse IgG (1:20,000, Licor) for 1 hour. After TBS-T washes, membranes were rinsed in TBS and scanned on Odyssey® CLx Imaging System (Licor). The bands were quantified using Image Studio™ Software (Licor).

[3] = molecular target: T1, KRAS-G12C mutant; experiment: Gel shift assay (SDS-PAGE) for covalent modification of KRAS G12C; type: binding; conditions: 0.5 μM compound, 1 μM GDP-bound KRAS G12C, 25° C., 5 minutes, shift indicative of covalent cysteine conjugation
Procedure: 0.5 μM compounds were incubated with 1 μM GDP-bound untagged KRAS (G12C or wild type) proteins at 25° C. for 5 minutes in 40 μl reaction buffer (50 mM Tris, pH 7.5, 100 mM NaCl, 1 mM MgCl2, 1 mM DTT). The reactions were quenched with 10 μI SDS-PAGE sample loading buffer (250 mM Tris-HCl, pH 6.8, 10% SDS, 0.5% bromophenol blue, 50% glycerol and 50 mM DTT) and then analyzed via SDS-PAGE using 4%-20% gradient polyacrylamide gel followed by Coomassie blue stain.
FIG. 1 illustrates mobility change of KRAS-G12C mutant or wild type proteins on SDS-PAGE after 5 minutes of coincubation at 25° C. with exemplary compounds of the present disclosure, indicative of covalent cysteine conjugation.
Table 3 summarizes molecular weight shift of KRAS-G12C mutant on SDS-PAGE after 5 mins of coincubation at 25° C. with exemplary compounds of the present disclosure, indicative of covalent cysteine conjugation.

Row | Compound | IC50 [1] [nM] | IC50 [2] [nM] | KRAS-G12C molecular weight shift [3]
1 | C=CC(=O)N1CCN(c2nc(OC[C@@H]3CCCN3C)nc3c2CO[C@@H](c2cccc4ccccc24)C3)C[C@@H]1CC#N [Compound 5, 2-((S)-1-acryloyl-4-((R)-2-(((S)-1-methylpyrrolidin-2-yl)methoxy)-7-(naphthalen-1-yl)-7,8-dihydro-5H-pyrano[4,3-d]pyrimidin-4-yl)piperazin-2-yl)acetonitrile] | 2150 | > 100 | 
2 | C=C(F)C(=O)N1CCN(c2nc(OC[C@@H]3CCCN3C)nc3c2CO[C@@H](c2cccc4cccc(Cl)c24)C3)C[C@@H]1CC#N [Compound 19, 2-((S)-4-((R)-7-(8-chloronaphthalen-1-yl)-2-(((S)-1-methylpyrrolidin-2-yl)methoxy)-7,8-dihydro-5H-pyrano[4,3-d]pyrimidin-4-yl)-1-(2-fluoroacryloyl)piperazin-2-yl)acetonitrile] | 80800 | > 100 | No
3 | C=C(F)C(=O)N1CCN(c2nc(OCC34CCCN3CCC4)nc3c2[C@@H](C)O[C@@H](c2cccc4cccc(C)c24)C3)C[C@@H]1CC#N [Compound 65, 2-((S)-1-(2-fluoroacryloyl)-4-((5R,7R)-5-methyl-7-(8-methylnaphthalen-1-yl)-2-((tetrahydro-1H-pyrrolizin-7a(5H)-yl)methoxy)-7,8-dihydro-5H-pyrano[4,3-d]pyrimidin-4-yl)piperazin-2-yl)acetonitrile] | 11600 | > 100 | No
4 | C=C(F)C(=O)N1CCN(c2nc(OCC34CCCN3CCC4)nc3c2CO[C@@H](c2cccc4c2CCCC4)C3)C[C@@H]1CC#N [Compound 68, 2-((S)-1-(2-fluoroacryloyl)-4-((R)-2-((tetrahydro-1H-pyrrolizin-7a(5H)-yl)methoxy)-7-(5,6,7,8-tetrahydronaphthalen-1-yl)-7,8-dihydro-5H-pyrano[4,3-d]pyrimidin-4-yl)piperazin-2-yl)acetonitrile] | 2540 | > 100 | No
5 | C=C(F)C(=O)N1CCN(c2nc(OCC34CCCN3CCC4)nc3c2[C@@H](C)O[C@@H](c2cccc4c2CCCC4)C3)C[C@@H]1CC#N [Compound 60, 2-((S)-1-(2-fluoroacryloyl)-4-((5R,7R)-5-methyl-2-((tetrahydro-1H-pyrrolizin-7a(5H)-yl)methoxy)-7-(5,6,7,8-tetrahydronaphthalen-1-yl)-7,8-dihydro-5H-pyrano[4,3-d]pyrimidin-4-yl)piperazin-2-yl)acetonitrile] | 4200 | > 100 | No
6 | C=C(F)C(=O)N1CCN(c2nc(OCC34CCCN3CCC4)nc3c2CO[C@@H](c2cccc4cccc(C)c24)C3)C[C@@H]1CC#N (single isomer, unassigned) [Compound 57] | 4860 | > 100 | No
7 | C=C(F)C(=O)N1CCN(c2nc(OCC34CCCN3CCC4)nc3c2CO[C@@H](c2cccc4cccc(Cl)c24)C3)C[C@@H]1CC#N (single isomer, unassigned) [Compound 54] | 2350 | > 100 | No
8 | C=CC(=O)N1CCN(c2nc(OC[C@@H]3CCCN3C)nc3c2CO[C@@H](c2cccc4cccc(Cl)c24)C3)C[C@@H]1CC#N [Compound 6, 2-((S)-1-acryloyl-4-((R)-7-(8-chloronaphthalen-1-yl)-2-(((S)-1-methylpyrrolidin-2-yl)methoxy)-7,8-dihydro-5H-pyrano[4,3-d]pyrimidin-4-yl)piperazin-2-yl)acetonitrile] | 7130 | > 100 | 
9 | C=CC(=O)N1CCN(c2nc(OC[C@@H]3C[C@H](F)CN3C)nc3c2CO[C@@H](c2cccc4ccccc24)C3)C[C@@H]1CC#N [Compound 10, 2-((S)-1-acryloyl-4-((R)-2-(((2S,4S)-4-fluoro-1-methylpyrrolidin-2-yl)methoxy)-7-(naphthalen-1-yl)-7,8-dihydro-5H-pyrano[4,3-d]pyrimidin-4-yl)piperazin-2-yl)acetonitrile] | 13900 | > 100 | 

Now those with a lower IC50 [1], led by results:

Row | IC50 [1] [nM] | IC50 [2] [nM] | KRAS-G12C molecular weight shift [3] | Compound
10 | 698 | > 100 |  | C=C(F)C(=O)N1CCN(c2nc(OC[C@@H]3CCCN3C)nc3c2COC(c2cccc4ccccc24)C3)C[C@@H]1CC#N (stereo partly drawn) [Compound 1, 2-((2S)-1-(2-fluoroacryloyl)-4-(2-(((S)-1-methylpyrrolidin-2-yl)methoxy)-7-(naphthalen-1-yl)-7,8-dihydro-5H-pyrano[4,3-d]pyrimidin-4-yl)piperazin-2-yl)acetonitrile]
11 | 303 | 10 to 100 | Yes | C=C(F)C(=O)N1CCN(c2nc(OCC3(CN(C)C)CC3)nc3c2COC(c2cccc4cccc(Cl)c24)C3)C[C@@H]1CC#N (stereo partly drawn) [Compound 70, 2-((2S)-4-(7-(8-chloronaphthalen-1-yl)-2-((1-((dimethylamino)methyl)cyclopropyl)methoxy)-7,8-dihydro-5H-pyrano[4,3-d]pyrimidin-4-yl)-1-(2-fluoroacryloyl)piperazin-2-yl)acetonitrile]
12 | 36 | 10 to 100 | Yes | C=C(F)C(=O)N1CCN(c2nc(OCC34CCCN3CCC4)nc3c2COC(c2cccc4c2CCCC4)C3)C[C@@H]1CC#N (stereo partly drawn) [Compound 67, 2-((2S)-1-(2-fluoroacryloyl)-4-(2-((tetrahydro-1H-pyrrolizin-7a(5H)-yl)methoxy)-7-(5,6,7,8-tetrahydronaphthalen-1-yl)-7,8-dihydro-5H-pyrano[4,3-d]pyrimidin-4-yl)piperazin-2-yl)acetonitrile]
13 | 29 | 1 to 10 |  | C=CC(=O)N1CCN(c2nc(OC[C@@H]3CCCN3C)nc3c2COC(c2cccc4cccc(Cl)c24)C3)C[C@@H]1CC#N (stereo partly drawn) [Compound 3, 2-((2S)-1-acryloyl-4-(7-(8-chloronaphthalen-1-yl)-2-(((S)-1-methylpyrrolidin-2-yl)methoxy)-7,8-dihydro-5H-pyrano[4,3-d]pyrimidin-4-yl)piperazin-2-yl)acetonitrile]

Source: patent publication US20220112204A1, “SUBSTITUTED DIHYDROPYRANOPYRIMIDINE COMPOUNDS AS KRAS INHIBITORS” (ACCUTAR BIOTECHNOLOGY INC., priority 2020, published 2022)
